In patent publication US20230398130A1, “METHODS AND COMPOSITIONS FOR DIFFERENTIATING STEM CELLS” (Massachusetts Institute of Technology, priority 2020, published 2023):

Assays:
ISC-enriched organoids [1] = assay: Primary screen, 384-well 2.5-D organoid differentiation (ENR+CD, 6 days): basal lysozyme secretion (LYZ.NS); assay type: cell-based, murine; conditions: for Dose.FC.LYZ.NS: FC vs plate median
Text: (§1) High-throughput screening.

ISC-enriched organoids [2] = assay: Primary screen, 384-well 2.5-D organoid differentiation (ENR+CD, 6 days): carbachol-induced lysozyme secretion (LYZ.S); assay type: cell-based, murine; conditions: primary screen, FC vs plate median
Text: as §1

ISC-enriched organoids [3] = assay: Primary screen, 384-well 2.5-D organoid differentiation (ENR+CD, 6 days, Target Selective Inhibitor Library, vs whole-plate median): ATP (CellTiter-Glo 3D, CTG); conditions: for Dose.FC.CTG: FC vs plate median
[4] = Dose 0.08 uM, primary screen, standard z score
[5] = Dose 0.40 uM, primary screen, standard z score
[6] = Dose 2.00 uM, primary screen, standard z score
[7] = Dose 10.00 uM, primary screen, standard z score
[8] = primary screen, dose 0.08 uM, ENR+CD 6 days
[9] = primary screen, dose 0.08 uM, standard z score of FC
[10] = primary screen, dose 0.40 uM, ENR+CD 6 days
[11] = primary screen, dose 0.40 uM, standard z score of FC
[12] = primary screen, dose 2.00 uM, ENR+CD 6 days
[13] = primary screen, dose 2.00 uM, standard z score of FC
[14] = primary screen, dose 10.00 uM, ENR+CD 6 days
[15] = primary screen, dose 10.00 uM, standard z score of FC
[16] = Dose 0.08 uM, standard z score of FC
[17] = Dose 0.40 uM, standard z score of FC
[18] = Dose 2.00 uM, standard z score of FC
[19] = Dose 10.00 uM, standard z score of FC

With `Cc1cccc(CC(=O)N2CCc3c2ccc(-c2cn(C)c4ncnc(N)c24)c3F)n1` [GSK2656157] the Dose.FC.LYZ.NS (ISC-enriched organoids [1]; Dose 0.08 uM, primary screen) was −0.031 log 2 fold change, the Z.LYZ.NS (ISC-enriched organoids [1]; [4]) was −0.267 and the Dose.FC.LYZ.NS (ISC-enriched organoids [1]; Dose 0.40 uM, primary screen) was −0.045 log 2 fold change. The Z.LYZ.NS (ISC-enriched organoids [1]; [5]) was −0.396, the Dose.FC.LYZ.NS (ISC-enriched organoids [1]; Dose 2.00 uM, primary screen) was −0.033 log 2 fold change and the Z.LYZ.NS (ISC-enriched organoids [1]; [6]) was −0.291. For the same compound, the Dose.FC.LYZ.NS (ISC-enriched organoids [1]; Dose 10.00 uM, primary screen) was −0.012 log 2 fold change, the Z.LYZ.NS (ISC-enriched organoids [1]; [7]) was −0.102 and the Dose.FC.LYZ.S (ISC-enriched organoids [2]; Dose 0.08 uM) was −0.008 log 2 fold change. The Dose.FC.LYZ.S (ISC-enriched organoids [2]; Dose 0.40 uM) was 0.060 log 2 fold change, the Dose.FC.LYZ.S (ISC-enriched organoids [2]; Dose 2.00 uM) was −0.020 log 2 fold change and the Dose.FC.LYZ.S (ISC-enriched organoids [2]; Dose 10.00 uM) was 0.090 log 2 fold change. For the same compound, the Dose.FC.CTG (ISC-enriched organoids [3]; Dose 0.08 uM, primary screen) was 0.068 log 2 fold change, the Z.CTG (ISC-enriched organoids [3]; [4]) was 0.162 and the Dose.FC.CTG (ISC-enriched organoids [3]; Dose 0.40 uM, primary screen) was 0.115 log 2 fold change. For the same compound, the Z.CTG (ISC-enriched organoids [3]; [5]) was 0.274, the Dose.FC.CTG (ISC-enriched organoids [3]; Dose 2.00 uM, primary screen) was 0.083 log 2 fold change and the Z.CTG (ISC-enriched organoids [3]; [6]) was 0.197. The Dose.FC.CTG (ISC-enriched organoids [3]; Dose 10.00 uM, primary screen) was 0.119 log 2 fold change and the Z.CTG (ISC-enriched organoids [3]; [7]) was 0.284.

`C[C@H]1COC2(CCN(c3nc(=O)c4cc(C(F)(F)F)cc([N+](=O)[O-])c4s3)CC2)O1` (racemic) [BTZ043 Racemate] gave a Dose.FC.LYZ.NS (ISC-enriched organoids [1]; [8]) of 0.131 log 2 fold change, a Z.LYZ.NS (ISC-enriched organoids [1]; [9]) of 1.138 and a Dose.FC.LYZ.NS (ISC-enriched organoids [1]; [10]) of 0.186 log 2 fold change. For the same compound, the Z.LYZ.NS (ISC-enriched organoids [1]; [11]) was 1.619, the Dose.FC.LYZ.NS (ISC-enriched organoids [1]; [12]) was 0.089 log 2 fold change and the Z.LYZ.NS (ISC-enriched organoids [1]; [13]) was 0.776. It also gave a Dose.FC.LYZ.NS (ISC-enriched organoids [1]; [14]) of 0.100 log 2 fold change, a Z.LYZ.NS (ISC-enriched organoids [1]; [15]) of 0.870 and a Dose.FC.LYZ.S (ISC-enriched organoids [2]; dose 0.08 uM, ENR+CD 6 days) of 0.199 log 2 fold change. It also gave a Dose.FC.LYZ.S (ISC-enriched organoids [2]; dose 0.40 uM, ENR+CD 6 days) of 0.252 log 2 fold change, a Dose.FC.LYZ.S (ISC-enriched organoids [2]; dose 2.00 uM, ENR+CD 6 days) of 0.038 log 2 fold change and a Dose.FC.LYZ.S (ISC-enriched organoids [2]; dose 10.00 uM, ENR+CD 6 days) of 0.070 log 2 fold change. It also gave a Dose.FC.CTG (ISC-enriched organoids [3]; [8]) of 0.497 log 2 fold change, a Z.CTG (ISC-enriched organoids [3]; [9]) of 1.187 and a Dose.FC.CTG (ISC-enriched organoids [3]; [10]) of 0.545 log 2 fold change. For the same compound, the Z.CTG (ISC-enriched organoids [3]; [11]) was 1.303, the Dose.FC.CTG (ISC-enriched organoids [3]; [12]) was 0.063 log 2 fold change and the Z.CTG (ISC-enriched organoids [3]; [13]) was 0.150. For the same compound, the Dose.FC.CTG (ISC-enriched organoids [3]; [14]) was 0.327 log 2 fold change and the Z.CTG (ISC-enriched organoids [3]; [15]) was 0.782.

Compound `CC(C)(F)C[C@H](N[C@@H](c1ccc(-c2ccc(S(C)(=O)=O)cc2)cc1)C(F)(F)F)C(=O)NC1(C#N)CC1` [Odanacatib (MK-0822)] has a Dose.FC.LYZ.NS (ISC-enriched organoids [1]; Dose 0.08 uM, primary screen) of 0.086 log 2 fold change, a Z.LYZ.NS (ISC-enriched organoids [1]; [16]) of 0.752 and a Dose.FC.LYZ.NS (ISC-enriched organoids [1]; Dose 0.40 uM, primary screen) of 0.162 log 2 fold change. For the same compound, the Z.LYZ.NS (ISC-enriched organoids [1]; [17]) was 1.409, the Dose.FC.LYZ.NS (ISC-enriched organoids [1]; Dose 2.00 uM, primary screen) was 0.024 log 2 fold change and the Z.LYZ.NS (ISC-enriched organoids [1]; [18]) was 0.212. For the same compound, the Dose.FC.LYZ.NS (ISC-enriched organoids [1]; Dose 10.00 uM, primary screen) was −0.035 log 2 fold change, the Z.LYZ.NS (ISC-enriched organoids [1]; [19]) was −0.307 and the Dose.FC.LYZ.S (ISC-enriched organoids [2]; Dose 0.08 uM) was 0.091 log 2 fold change. The Dose.FC.LYZ.S (ISC-enriched organoids [2]; Dose 0.40 uM) was 0.170 log 2 fold change, the Dose.FC.LYZ.S (ISC-enriched organoids [2]; Dose 2.00 uM) was 0.036 log 2 fold change and the Dose.FC.LYZ.S (ISC-enriched organoids [2]; Dose 10.00 uM) was −0.074 log 2 fold change. The Dose.FC.CTG (ISC-enriched organoids [3]; Dose 0.08 uM, primary screen) was 0.119 log 2 fold change, the Z.CTG (ISC-enriched organoids [3]; [16]) was 0.285 and the Dose.FC.CTG (ISC-enriched organoids [3]; Dose 0.40 uM, primary screen) was 0.208 log 2 fold change. The Z.CTG (ISC-enriched organoids [3]; [17]) was 0.496, the Dose.FC.CTG (ISC-enriched organoids [3]; Dose 2.00 uM, primary screen) was −0.008 log 2 fold change and the Z.CTG (ISC-enriched organoids [3]; [18]) was −0.020. The Dose.FC.CTG (ISC-enriched organoids [3]; Dose 10.00 uM, primary screen) was 0.006 log 2 fold change and the Z.CTG (ISC-enriched organoids [3]; [19]) was 0.015.
